This passage reports IC50 results from ChEMBL document CHEMBL2021894, “The Discovery of VX-745: A Novel and Selective p38α Kinase Inhibitor” (ACS Med Chem Lett, 2011).

Experiment [1] concerns the target T1, Mitogen-activated protein kinase 14 (Homo sapiens, UniProt Q16539). In words: Inhibition of p38alpha in human PBMC assessed as inhibition of LPS-induced IL1beta production after 16 to 18 hrs by ELISA.
Experiment [2] concerns the target T1, Mitogen-activated protein kinase 14. The experiment is described as follows: Inhibition of p38alpha kinase using KRELVEPLTPSGEAPNQALLR as substrate for 20 mins by lactate dehydrogenase-coupled spectrophotometric assay.
The target is the same in experiment [3]. In words: Inhibition of p38alpha in human PBMC assessed as inhibition of LPS-induced TNFalpha production after 16 to 18 hrs by ELISA.

Structures are written as SMILES.

T1 sequence (Q16539 whole entry): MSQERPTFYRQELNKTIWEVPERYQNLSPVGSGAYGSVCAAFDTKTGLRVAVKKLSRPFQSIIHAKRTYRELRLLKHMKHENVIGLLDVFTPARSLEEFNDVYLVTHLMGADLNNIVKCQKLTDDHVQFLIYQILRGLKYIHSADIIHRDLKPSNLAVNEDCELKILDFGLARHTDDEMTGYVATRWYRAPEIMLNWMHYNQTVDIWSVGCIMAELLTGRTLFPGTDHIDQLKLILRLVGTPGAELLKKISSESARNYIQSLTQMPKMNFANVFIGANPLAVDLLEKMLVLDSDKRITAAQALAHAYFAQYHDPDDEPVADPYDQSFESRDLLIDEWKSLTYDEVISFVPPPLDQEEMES

With `O=c1ncn2nc(Sc3ccccc3)ccc2c1-c1c(Cl)cccc1Cl`, the figures for the IC50 in experiment [1], in experiment [2] and in experiment [3] were 400 nM, 250 nM and 460 nM, respectively.
Regarding `O=c1ncn2nc(Sc3ccc(Cl)c(Cl)c3)ccc2c1-c1c(Cl)cccc1Cl`, the IC50 in experiment [2] is 800 nM; in experiment [3], 1200 nM.
In the case of `Cc1ccc(Sc2ccc3c(-c4c(Cl)cccc4Cl)c(=O)ncn3n2)cc1`, the IC50 in experiment [1] amounted to 370 nM; in experiment [2], 1400 nM.
In the case of `O=c1ncn2nc(Sc3cccc(Cl)c3)ccc2c1-c1c(Cl)cccc1Cl`, the IC50 in experiment [2] worked out at 280 nM.
For `O=c1ncn2nc(Sc3cccc(F)c3)ccc2c1-c1c(Cl)cccc1Cl`, the values for the IC50 in experiment [1] and in experiment [3] were 440 nM and 720 nM, respectively.
For `Cc1cc(Cl)ccc1Sc1ccc2c(-c3c(Cl)cccc3Cl)c(=O)ncn2n1`, the values for the IC50 in experiment [1], in experiment [2] and in experiment [3] were 180 nM, 180 nM and 160 nM, respectively.
Consider `O=c1ncn2nc(Sc3ccccc3O)ccc2c1-c1c(Cl)cccc1Cl`, for which the IC50 was 140 nM in experiment [1], 360 nM in experiment [2] and 490 nM in experiment [3].
On to `O=c1ncn2nc(Sc3ccccc3)ccc2c1-c1ccc(Cl)cc1Cl`, for which the IC50 in experiment [1] amounted to 20000 nM; in experiment [2] it was 5000 nM; in experiment [3], 20000 nM.
For the compound `O=c1ncn2nc(Sc3ccccc3)ccc2c1-c1ccccc1`, the IC50 in experiment [2] is over 20000 nM.
In the case of `Cc1ccccc1-c1c(=O)ncn2nc(Sc3ccccc3)ccc12`, the figures for the IC50 in experiment [2] and in experiment [3] were 4400 nM and 9700 nM, respectively.
Consider `COc1ccccc1-c1c(=O)ncn2nc(Sc3ccccc3)ccc12`, for which the figures for the IC50 in experiment [1] and in experiment [2] were 2800 nM and 12000 nM, respectively.
`O=c1ncn2nc(Sc3ccccc3)ccc2c1-c1ccccc1C(F)(F)F`: the IC50 in experiment [1] is 2100 nM; in experiment [2] it was 11000 nM; in experiment [3], over 20000 nM.
In turn, `O=c1ncn2nc(Sc3ccccc3)ccc2c1-c1ccccc1Cl` had an IC50 in experiment [2] of 4100 nM.
In the case of `O=c1ncn2nc(Sc3ccccc3)ccc2c1-c1ccc(F)cc1`, the IC50 in experiment [2] and in experiment [3] was over 20000 nM in each case.
With `O=c1ncn2nc(Sc3ccccc3)ccc2c1-c1c(F)cccc1C(F)(F)F`, the IC50 came to 1000 nM in experiment [1], 1700 nM in experiment [2] and 3100 nM in experiment [3].
As for `O=c1ncn2nc(Sc3ccccc3)ccc2c1-c1c(F)cccc1F`, the values for the half-maximal inhibitory concentration (IC50) in experiment [1], in experiment [2] and in experiment [3] were 3700 nM, 3500 nM and 15300 nM, respectively.
For `CCc1ccccc1Sc1ccc2c(-c3c(Cl)cccc3Cl)c(=O)ncn2n1`, the IC50 is 980 nM in experiment [1], 750 nM in experiment [2] and 2800 nM in experiment [3].
For `Cc1cccc(Sc2ccc3c(-c4c(Cl)cccc4Cl)c(=O)ncn3n2)c1`, inhibition in experiment [2] was half-maximal at 1400 nM (IC50).
Turning to `Nc1cc(F)ccc1Sc1ccc2c(-c3c(Cl)cccc3Cl)c(=O)ncn2n1`, the figures for the IC50 in experiment [1], in experiment [2] and in experiment [3] were 280 nM, 220 nM and 1200 nM, respectively.
`Cc1ccccc1Sc1ccc2c(-c3c(Cl)cccc3Cl)c(=O)ncn2n1`: the IC50 in experiment [1] came to 330 nM; in experiment [2], 200 nM; in experiment [3], 3700 nM.
Regarding `O=c1ncn2nc(Sc3ccc(F)cc3)ccc2c1-c1c(Cl)cccc1Cl`, the IC50 in experiment [2] was 123 nM; in experiment [3], 293 nM.
Regarding `Cc1ccc(Sc2ccc3c(-c4c(Cl)cccc4Cl)c(=O)ncn3n2)cc1C`, the values for the 50% inhibitory concentration (IC50) in experiment [1], in experiment [2] and in experiment [3] were 2400 nM, 1900 nM and 3500 nM, respectively.
On to `Cc1ccc(Sc2ccc3c(-c4c(Cl)cccc4Cl)c(=O)ncn3n2)c(C)c1`, for which the figures for the 50% inhibitory concentration (IC50) in experiment [1], in experiment [2] and in experiment [3] were 690 nM, 260 nM and 320 nM, respectively.
Taken in the same sequence, the figures for `O=c1ncn2nc(Sc3ccc(F)cc3Cl)ccc2c1-c1c(Cl)cccc1Cl` were 53 nM, 36 nM and 275 nM.
As to `O=c1ncn2nc(Sc3ccc(F)c(Cl)c3)ccc2c1-c1c(Cl)cccc1Cl`, the IC50 was 180 nM in experiment [1], 500 nM in experiment [2] and 480 nM in experiment [3].

As usually defined, the IC50 is the midpoint of a concentration-inhibition curve.
